Entries after “also recorded” stand apart in the source; their conditions may differ. Read-outs that look alike come from different tables or passages of the source.
Experiments:
[1] = system: CHOP, c-myc and cyclin D in HUT78, HUT102 and MyLa cells; assay: Western blot of ER stress and proliferation markers; type: cell-based, human; details: for lowest concentration triggering near-maximal CHOP induction: 72 hours
Excerpt: (§1) 2. Material and methods 2.1. […] 2.2. […] 2.3. […] 2.4. […] 2.5.

HUT102 cells [2] = assay: Cell proliferation by Trypan blue exclusion counting, HUT102; type: cell-based, human; details: HUT102, 1 μM
Excerpt: as §1

[3] = system: cleaved PARP and cleaved caspases 3 and 4 in HUT78, HUT102 and MyLa cells; assay: Western blot of apoptosis markers (cleaved PARP-1, cleaved caspases); type: cell-based, human
Excerpt: as §1

Toxicity studies in mice = type: in vivo
Excerpt: (§2) Compared to both of its individual components, TMZ and POH, NEO212 exerts substantially greater cytotoxic activity, potentially via involvement of the pro-apoptotic module of the ER stress response mechanism, although its alkylating activity might contribute as well. As a next step in NEO212's development, in vivo experiments in immunodeficient murine CTCL models should be performed. We have attempted such models, but tumor take with our CTCL cell lines was unacceptably low, not inconsistent with reported challenges of achieving consistent tumor growth with these and other CTCL cell lines in general^57-59 It is conceivable that serial passage of positive tumors in mice would yield more aggressive cells, and we are considering pursuing this approach.

[4] = system: TMZ sensitive (U251) cells; assay: Colony forming assay, TMZ sensitive U251; type: cell-based, human
Experimental: (§3) Colony forming assays were carried out after cells were treated with TMZ alone, POH alone, and the TMZ-POH conjugate. […] Cancer Lett. 2011 Mar. 28; 302(2):100-8.

HuT 78 cells = assay: MTT assay on HuT 78 cells (Example 14); details: HuT 78, 72 hours
Experimental: HuT 78 cells are cutaneous T lymphocytes derived from a patient with Sézary syndrome.
HuT 78 cells were treated in vitro with (i) temozolomide (50, 100, 250 μM), (ii) POH-TMZ conjugate (“NEO212”, 25, 50, 100 μM), (iii) NEO412 which is the triple conjugate of temozolomide (TMZ), perillyl alcohol (POH), and linoleic acid (25, 50, 100, 250 μM), or (iv) vehicle alone. Seventy-two hours after the addition of drugs or vehicle, cell viability was determined by standard MTT (methylthiazoletetrazolium) assay.

HUT78 cells [5] = assay: Cell proliferation by Trypan blue exclusion counting, HUT78; type: cell-based, human; details: HUT78, 1 μM
Excerpt: as §1

HUT78 cells [6] = assay: MTT cell viability assay, HUT78 (Example 15)
Experimental: Pharmacological agents—NEO212 was dissolved in DMSO at 100 mM. TMZ was purchased from Sigma Aldrich (St. Louis, Mo.) and dissolved in DMSO (Santa Cruz Biotechnology, Dallas, Tex.) to a concentration of 50 mM. POH was purchased from Sigma-Aldrich and diluted in DMSO to 100 mM. […] Stock solutions of all drugs were stored at −20° C. Staurosporine (STSP) was purchased from Selleck Chemicals (Houston, Tex.), stored at 4° C. protected from light, and dissolved in DMSO before use. Ascorbic acid (AA) and beta-mercaptoethanol (b-ME) (Sigma Aldrich) were prepared fresh before use. Crystalline AA was dissolved in phosphate-buffered saline (PBS) to 25 mM; b-ME was diluted in medium to 25 mM. […] Cell lines—Three different human CTLC cell lines were used. […] Both media also contained 100 U/mL penicillin and 0.1 mg/mL streptomycin. Penicillin, streptomycin, and RPMI (prepared with raw materials from Cellgro/MediaTech, Manassas, Va.) were provided by the Cell Culture Core lab of the USC/Norris Comprehensive Cancer Center. […] Cells were kept in a humidified incubator at 37° C. and a 5% CO2 atmosphere. FBS was obtained from Omega Scientific (Tarzana, Calif.) and from X&Y Cell Culture (Kansas City, Mo.). […] MTT assay—Methylthiazoletetrazolium (MTT) assays were performed as follows. Cells were seeded into 96-well plates in a volume of 50 μL per well at 3.0-5.0×10^5 cells/mL. An additional 50 μL of medium containing various concentrations of drug (or vehicle) was added and the cells were incubated for different lengths of time. This was followed by the addition of 10 μL thiazolyl-blue tetrazolium (i.e., MTT; Sigma Aldrich) from a stock solution of 5 mg/mL in phosphate-buffered saline (PBS). Cells were returned to the incubator for 4 hours. Thereafter, the reaction was stopped and the cells were lysed by the addition of 100 μL solubilization solution (10% sodium dodecyl sulfate in 0.01 M hydrochloric acid). The 96-well plate was left in the cell culture incubator over night for complete solubilization of the MTT crystals, and the optical density (OD) of each well was determined the next day in an ELISA plate reader at 560 nm. The background value (=OD of control wells containing medium without cells+MTT+solubilization solution) was subtracted from all measured values. In individual experiments, each treatment condition was set up in quadruplicate, and each experiment was repeated several times independently. […] Cell proliferation analysis—Cell proliferation was assessed by counting cells over time. Independent cell cultures were exposed to different concentrations of NEO212. At different times, aliquots of cells were removed, mixed with Trypan blue, and counted in a hemocytometer. Blue cells were considered dead, whereas unstained cells were counted as live cells. […] Fluorescence-activated cell sorting (FACS) analysis—Cells were seeded in 6-well tissue culture plates at 2×10^5 cells/mL, followed by drug treatment. After 72 hours, cells were collected, washed twice with PBS, transferred to a microcentrifuge tube, and suspended in 200 μL of 1× binding buffer solution, which was made fresh from 10x binding buffer (0.2 μm sterile-filtered 0.1 M HEPES, pH 7.4; 1.4 M NaCl; 25 mM CaCl2)). Then 1 μL of a 1 mg/mL 7-amino-actinomycin D (7-AAD) solution (Thermo Fisher Scientific, Waltham, Mass.) was added. After 20 minutes of incubation on ice, cell fluorescence was analyzed on a FACSAria Flow Cytometer (Becton Dickinson Biosciences Ltd., Franklin Lakes, N.J.).

[7] = system: U87, A172 and U251 human glioma cells; assay: MTT cytotoxicity assay on human malignant glioma cells; type: cell-based
Excerpt: In vitro efficacy of the present composition can be determined using methods well known in the art. For example, the cytotoxicity of the present monoterpene (or sesquiterpene) and/or the therapeutic agents may be studied by MTT [3-(4,5-dimethylthiazol-2-yl)-2,5-diphenyl tetrazolium bromide] cytotoxicity assay. MTT assay is based on the principle of uptake of MTT, a tetrazolium salt, by metabolically active cells where it is metabolized into a blue colored formazon product, which can be read spectrometrically. J. of Immunological Methods 65: 55 63, 1983. The cytotoxicity of the present monoterpene (or sesquiterpene) derivative and/or the therapeutic agents may be studied by colony formation assay. Functional assays for inhibition of VEGF secretion and IL-8 secretion may be performed via ELISA. Cell cycle block by the present monoterpene (or sesquiterpene) derivative and/or the therapeutic agents may be studied by standard propidium iodide (PI) staining and flow cytometry. Invasion inhibition may be studied by Boyden chambers. In this assay a layer of reconstituted basement membrane, Matrigel, is coated onto chemotaxis filters and acts as a barrier to the migration of cells in the Boyden chambers. Only cells with invasive capacity can cross the Matrigel barrier. Other assays include, but are not limited to cell viability assays, apoptosis assays, and morphological assays.
Then U87, A172 and U251 cells were treated with dimethyl celecoxib bisPOH carbamate (POH-DMC) (e.g., synthesized by the method in Example 1), and the MTT cytotoxicity assays performed (FIG. 2).
Then TMZ-resistant glioma cell lines U87, A172 and U251 cells were treated with temozolomide POH carbamate (POH-TMZ) (e.g., synthesized by the method in Example 3).

[8] = system: ER stress (CHOP) in TMZ sensitive and resistant U251 glioma cells; assay: Western blot of ER stress (CHOP) in U251 glioma cells; type: cell-based, human; details: 18 hr treatment
Experimental: TMZ sensitive and resistant glioma cells Western blots were performed after TMZ sensitive and resistant glioma cells were treated with the TMZ-POH conjugate for 18 hr. […] Activation of the proapoptic protein CHOP was shown at concentrations as low as 60 uM of TMZ-POH.

MyLa cells [9] = assay: MTT cell viability assay, MyLa (Example 15); type: cell-based, human
Excerpt: as §1

HUT102 cells [10] = assay: MTT cell viability assay, HUT102 (Example 15); type: cell-based, human
Excerpt: as §1

HUT78 cells [11] = assay: FACS analysis of cell death with 7-AAD; type: cell-based, human; details: 72 hours
Excerpt: as §1

[12] = system: USC-04 glioma cancer stem cells; assay: MTT cytotoxicity assay, USC-04; type: cell-based; details: USC-04, MTT
Excerpt: (§4) Cancer Lett. 2011 Mar. 28; 302(2):100-8.

[13] = system: brain endothelial cells (BEC; confluent and subconfluent); assay: MTT cytotoxicity assay, brain endothelial cells; type: cell-based
Excerpt: as §4

[14] = system: TMZ resistant (U251TR) U251 cells; assay: Colony forming assay, TMZ resistant U251TR; type: cell-based, human
Experimental: as §3

[15] = system: USC-02 glioma cancer stem cells; assay: MTT cytotoxicity assay, USC-02; type: cell-based; details: USC-02, MTT
Excerpt: as §4

[16] = Toxicity studies in Beagle dogs; type: in vivo; details: Beagle dogs (unpublished)
Excerpt: as §2

[17] = system: TMZ sensitive cells (U251); assay: MTT cytotoxicity assay, U251
Experimental: (§5) MTT cytotoxicity assays were carried out after cells were treated with the TMZ-POH conjugate. The MTT cytotoxicity assays were carried out as described in Chen TC, et al. Green tea epigallocatechin gallate enhances therapeutic efficacy of temozolomide in orthotopic mouse glioblastoma models. Cancer Lett. 2011 Mar. 28; 302(2):100-8.

[18] = system: tumor brain endothelial cells (TuBEC); assay: MTT cytotoxicity assay, tumor brain endothelial cells; type: cell-based
Excerpt: as §4

normal astrocytes = assay: MTT cytotoxicity assay, normal astrocytes; details: listed as TMZ-POH
Experimental: as §5

[19] = system: TMZ resistant cells (U251TR); assay: MTT cytotoxicity assay, U251TR
Experimental: as §5

MyLa cells [20] = assay: Cell proliferation by Trypan blue exclusion counting, MyLa; type: cell-based, human; details: 1 μM
Excerpt: as §1

Q: Which “lowest concentration triggering near-maximal CHOP induction” value ([1]; HUT78 cells) does the source give for `C=C(C)C1CC=C(COC(=O)NC(=O)c2ncn3c(=O)n(C)nnc23)CC1` (centres unmarked) [NEO212] here?
A: 0.1 µM

Q: What about the “expression levels of c-myc and cyclin D proteins” value ([1]; HUT102 and MyLa cells) of the same compound?
A: declined

Q: What about the “lowest concentration triggering near-maximal CHOP induction” value ([1]; HUT102 cells) of the same compound?
A: 1.0 µM

Q: And the “concentration dependence of CHOP induction” value ([1]; MyLa cells, 96 hours)?
A: gradual increase all the way up to 100 μM

Q: And the “induction of CHOP protein” value ([1]; all three CTCL cell lines)?
A: prominent induction of CHOP protein

Q: And the proliferation-inhibitory effect (HUT102 cells [2])?
A: slightly less pronounced activity

Q: What about the “concentration at which apoptosis markers emerged” value ([3]; HUT78 and HUT102 cells) of the same compound?
A: 0.1 to 1.0 µM

Q: What about the “concentration required for apoptosis markers” value ([3]; MyLa cells) of the same compound?
A: 30 µM

Q: And the “induction of apoptosis markers” value ([3]; all three CTCL cell lines)?
A: appearance of cleaved PARP and cleaved (i.e., activated) caspases 3 and 4

Q: And the tolerability (Toxicity studies in mice)?
A: very well tolerated

Q: What about the “cytotoxicity in colony forming assay” value ([4]; listed as POH-TMZ) of the same compound?
A: substantially greater potency compared to POH alone

Q: And the “cytotoxicity in colony forming assay” value ([4]; listed as TMZ-POH)?
A: demonstrated cytotoxicity

Q: And the “cytotoxic effect on MF cells in MTT assay” value (HuT 78 cells)?
A: pronounced cytotoxic effect

Q: And the proliferation-inhibitory effect (HUT78 cells [5])?
A: strongest effect

Q: And the reduction of viability (HUT78 cells [6]; HUT78, 10 μM)?
A: over 50%

Q: What about the “concentration of earliest effect on viability” value (HUT78 cells [6]; HUT78, 24 hours, as low as) of the same compound?
A: 3 µM

Q: What about the IC50 (HUT78 cells [6]; HUT78, 48 hours) of the same compound?
A: < 3 µM

Q: And the IC50 (HUT78 cells [6]; HUT78, 72 hours)?
A: ~4 µM

Q: And the “potency relative to that of TMZ” value (HUT78 cells [6]; HUT78 cells)?
A: over 100 fold

Q: What about the IC50 (HUT78 cells [6]; read-out: IC50 (50% decrease in viability), HUT78, 24 hours) of the same compound?
A: 8 µM

Q: And the “cytotoxicity in MTT assay” value [7]?
A: substantially higher kill rates

Q: What about the “concentration at which activation of CHOP was shown” value ([8]; as low as) of the same compound?
A: 60 µM

Q: And the “induction of ER stress (ERS)” value ([8]; western blot)?
A: induces ER stress

Q: What about the IC50 (MyLa cells [9]; 72 hours) of the same compound?
A: ~130 µM

Q: And the IC50 (MyLa cells [9]; 96 hours)?
A: ~85 µM

Q: And the IC50 (HUT102 cells [10]; HUT102, 72 hours)?
A: 9 µM

Q: What about the IC50 (HUT102 cells [10]; HUT102, 96 hours) of the same compound?
A: 3 µM

Q: And the cell death (HUT78 cells [11]; HUT78, 1 μM)?
A: 33%

Q: What about the cell death (HUT78 cells [11]; HUT78, 30 μM) of the same compound?
A: 50%

Q: What about the IC50 [12] of the same compound?
A: 150 µM

Q: What about the “cytotoxicity in MTT assay” value ([13]; confluent BEC) of the same compound?
A: did not induce significant cytotoxicity

Q: What about the “cytotoxicity in MTT assay” value ([13]; subconfluent BEC, high concentrations) of the same compound?
A: Mild to moderate cytotoxicity

Q: What about the “cytotoxicity in colony forming assay” value ([14]; listed as POH-TMZ) of the same compound?
A: substantially greater potency compared to POH alone

Q: And the “cytotoxicity in colony forming assay” value ([14]; listed as TMZ-POH)?
A: demonstrated cytotoxicity

Q: What about the IC50 [15] of the same compound?
A: 60 µM

Q: What about the tolerability [16] of the same compound?
A: very well tolerated

Q: What about the “cytotoxicity in MTT assay” value [17] of the same compound?
A: demonstrated cytotoxicity

Q: And the “cytotoxicity in MTT assay” value [18]?
A: did not induce significant cytotoxicity

Q: What about the “cytotoxicity in MTT assay” value (normal astrocytes) of the same compound?
A: not towards normal astrocytes; also recorded: did not induce significant cytotoxicity

Q: What about the “cytotoxicity in MTT assay” value [19] of the same compound?
A: demonstrated cytotoxicity

Q: And the proliferation-inhibitory effect (MyLa cells [20])?
A: weaker activity
